In patent US20150164762A1, “USE OF ETHANOLAMINE PHOSPHATE” (priority 2012, published 2015):

How the values were obtained:
BEAS-2B cells = test: WST-8 proliferation test, BEAS-2B cells at different FBS concentrations; type: cell-based, human
Description: 10% FBS RPMI-1640 was used as the medium. […] Following medium replacement, 10 μl/well of EP solution was added. A proliferation test (WST-8 assay) was performed after 96 hours. The operations of the WST-8 assay were as follows.
(1) The medium was removed from the 96-well plate by decantation and tapping.
(2) WST-8 reagent (Dojindo) was mixed to a ratio of 1:10 with serum-free medium (RPMI-1640) that had been warmed in advance at 37° C., and added to the wells from which the medium had been removed.
(3) A color reaction was performed for 1 hour in a CO2 incubator, and absorbance at 450 nm and 650 nm was measured with an absorbance plate reader.
(4) Absorbance at 450 nm-absorbance at 650 nm was calculated for purposes of correction between plates.
(5) The average of the 4 blank wells was subtracted from the corrected value of all wells, and the result was given as the relative corresponding cell number.

HBEpC cells = test: WST-8 proliferation test, primary normal human airway epithelial cells (HBEpC); type: cell-based
Description: BEGM (Takara Bio, complete medium) was used as the medium. […] Following medium replacement, 10 μl per well of an EP solution of 10 times the set concentration was added, and after 96 hours a proliferation test (WST-8 assay) was performed.

HEKa cells = test: WST-8 proliferation test, primary normal keratinocytes (HEKa); type: cell-based, human; conditions: Epilife basal medium, 21 days
Description: HEKa cells (Takara Bio) were seeded to 2×10^4 cells/cm^2 on a 48-well plate. Epilife basal medium (M-EPI-500-CA, Invitrogen) with HKGS Kit (S-001-K, Invitrogen) as an added factor was used as the medium. This HKGS Kit contains bovine pituitary extract, bovine insulin, hydrocortisone, bovine transferrin and human EGF.

HEK 293 = test: WST-8 proliferation test, HEK 293 immortalized model cells; type: cell-based, human; conditions: 0% FBS, 96 hours, even at high concentrations
Description: 0% FBS RPMI-1640 was used as the medium. 24 hours after seeding the cells were washed with 20 μl per well of PBS, and the medium was replaced with 0% FBS RPMI-1640. Following medium replacement, EP solution with 10 times the set concentration was added 10 μl per well, and a proliferation test (WST-8 assay) was performed 96 hours after addition of EP.

THP-1 = test: WST-8 proliferation test, THP-1 floating cells; type: cell-based, human; conditions: 0% FBS, 72 hours, high concentrations of 125 μM or more
Description: (§1) THP-1 (human acute monocytic leukemia cells) and HL-60 (human myeloid leukemia cells) were logarithmically growth cultured in 10% FBS RPMI-1640 to 2 to 10×10^5 cells/cm^2 to achieve logarithmic growth before EP administration. The cell culture liquid was then centrifuged and precipitated at 1000 rpm, and 90 μl per well was dispensed onto a 96-well plate to 2×10^4 cells/cm^2 in 0% FBS RPMI-1640. […] For the WST-8 assay of the floating cells, 10 μl per well of WST-8 assay reagent was added directly to the cell suspension during culture, and after 1 hour absorbance at 450 nm and 600 nm was measured with a plate reader and the data were analyzed as in the examples above.

HL-60 = test: WST-8 proliferation test, HL-60 floating cells; type: cell-based, human; conditions: 0% FBS, 72 hours, even at high concentrations
Description: as §1

BEAS-2B [1] = test: Suppression of the proliferative effect of EP by a MEK 1/2 inhibitor (WST-8); type: cell-based, human; conditions: 250 μM EP, no MEK 1/2 inhibitor, 0.1% FBS, 72 hours
caspase 3/7 = test: Serum-free stress-induced caspase 3/7 activity (Caspase-Glo3/7 assay) per cell; type: cell-based, human; conditions: 0% FBS, 24 hours
Description: After medium replacement, 10 μl per well of EP or FBS solution was added. After 24 hours, a proliferation test (WST-8 assay) and caspase 3/7 assay (Caspase-Glo3/7 assay, Promega) were performed. […] Caspase 3/7 activity was measured by a luminescence test, the blank average was subtracted, and this was divided by the corrected absorbance (corresponding to relative cell number) from the WST-8 assay to calculate the caspase 3/7 activity per cell.

BEAS-2B [2] = test: Permeability test, 4-kilodalton fluorescent dextran through BEAS-2B cell sheet (Papp); type: cell-based, human; conditions: EP 1 mM, 7 days after seeding
Description: Cells of the established normal human airway epithelial cell line BEAS-2B were seeded to 1×10^5 cells/cm^2 on a cell culture insert (353104, BD Falcon) (FIG. 14). 10% FBS RPMI-1640 was used as the medium. The amount of medium was 200 μl on the insert side and 750 μl on the well side. Beginning the next day, substitution/medium replacement was performed once a day with 1% FBS RPMI-1640 prepared with the following 4 reagent conditions, and transepithelial electrical resistance (TER) was measured with MilliCell (Millipore). • Condition 1: Control • Condition 2: EP 1 mM • Condition 3: Dexamethasone 1 μM (dexamethasone (Dex): positive control substance known to enhance barrier function) • Condition 4: EP 1 mM and Dex 1 μM
7 days after cell seeding a permeability test was performed as follows.
A 4-kilodalton fluorescent dextran molecule (Sigma) was added to the cell culture insert to a concentration of 0.1 mg/ml, 20 μl of the medium on the well side was removed after 1 hour, and the amount of permeating fluorescent dextran was estimated from the fluorescent strength at each concentration. The permeation rate Papp of a substance from the insert side to the well side is normally determined by the following formula.
Papp=(volume of medium on well side/insert area×initial insert concentration)×(altered concentration on well side/elapsed time)

Calu-3 cells = test: Transepithelial electrical resistance (TER), Calu-3; type: cell-based, human; conditions: 1 mM EP, 0.1% FBS
Description: Calu-3 cells were seeded to 3×10^5 cells/cm^2 on a cell culture insert (353104, BD Falcon). They were cultured until confluent in 10% FBS RPMI-1640, and once confluence was reached, 0.1% FBS RPMI-1640 containing the following was substituted, and the medium was replaced every day. TER was measured as in Example 11. The results are shown in FIG. 15. • Condition 1: Control • Condition 2: 1 μM dexamethasone • Condition 3: 1 mM EP

NCCOP(=O)(O)O [EP, Ethanolamine phosphate]
proliferation of BEAS-2B cells (BEAS-2B cells; 0-0.5% FBS, 96 hours): dependent on EP concentration
toxicity attributable to EP (BEAS-2B cells; high-concentration range (mM level)): no obvious toxicity
cell proliferation, ratio relative to control using 0 μM EP (BEAS-2B cells; medium contains no FBS, 96 hours): ≤ 11 times
growth-stimulating effect (HBEpC cells; 7 μM, BEBM basal medium, 96 hours): roughly two-fold
toxicity (HBEpC cells; mM level): no toxicity
growth-stimulating effect (HEKa cells): growth-stimulating effect
minimum concentration giving roughly the maximum growth-stimulating effect (HEKa cells): 15.6 µM
cell proliferation ability (HEK 293): absolutely no cell proliferation ability
cell proliferation effect (THP-1): small cell proliferation effect
cell proliferation ability (HL-60): absolutely no cell proliferation ability
cell proliferation (BEAS-2B [1]): roughly 3 fold
FBS concentration whose effect EP 1000 μM corresponds to (regression curve) (caspase 3/7): 2.2%
caspase 3/7 activity per cell (caspase 3/7; 1000 μM): about 0.72 fold
permeation rate Papp of fluorescent dextran, lower than control (BEAS-2B [2]): 25%
rise in TER value relative to the control (Calu-3 cells): 2.0 fold
